Laboratory results reported in ChEMBL document CHEMBL4619763 (J Nat Prod, 2020).
Activity calls are given as the source filed them. The calls are words filed in the database; no cut-off is given here.

Tests used:
[1] = system: Rattus norvegicus; assay: Diuretic activity in spontaneous hypertensive Wistar rat assessed as increase in urinary chloride excretion at 0.1 mg/kg, po administered via gavage for 7 days; type: functional, organism-based
[2] = system: Rattus norvegicus; assay: Diuretic activity in normotensive Wistar rat assessed as urinary chloride excretion at 0.1 mg/kg, po administered via gavage after 8 hrs in presence of furosemide (reference value: 135.10 to 143.70 mmol/L); type: functional
[3] = system: Rattus norvegicus; assay: Diuretic activity in normotensive Wistar rat assessed as urinary chloride excretion at 1 mg/kg, po administered via gavage after 8 hrs (reference value: 135.10 to 143.70 mmol/L); type: functional
[4] = system: Rattus norvegicus; assay: Diuretic activity in normotensive Wistar rat assessed as urinary sodium excretion at 0.1 mg/kg, po administered via gavage after 8 hrs in presence of atropine (reference value: 61.82 to 80.81 mmol/L); type: functional
[5] = system: Rattus norvegicus; assay: Diuretic activity in normotensive Wistar rat assessed as urinary chloride excretion at 0.01 mg/kg, ip […] after 8 hrs (reference value: 103.30 +/- 10.25 mmol/L); type: functional
[6] = system: Rattus norvegicus; assay: Diuretic activity in normotensive Wistar rat assessed as urine conductivity at 0.01 mg/kg, po administered via gavage after 8 hrs (reference value: 19.54 +/- 0.98 mS/cm); type: functional
[7] = system: Rattus norvegicus; assay: Diuretic activity in normotensive Wistar rat assessed as urinary potassium excretion at 0.01 mg/kg, po administered via gavage after 8 hrs (reference value: 22.39 to 24.21 mmol/L); type: ADME, organism-based; settings: in vivo
[8] = system: Rattus norvegicus; assay: Diuretic activity in spontaneous hypertensive Wistar rat assessed as effect on urinary potassium excretion at 0.1 mg/kg, po administered via gavage for 7 days; type: ADME, organism-based; settings: in vivo, 168 h
[9] = system: Rattus norvegicus; assay: Diuretic activity in normotensive Wistar rat assessed as urine conductivity at 0.1 mg/kg, po administered via gavage after 8 hrs (reference value: 19.54 +/- 0.98 mS/cm); type: functional
[10] = system: Rattus norvegicus; assay: In vivo antioxidant activity in Wistar rat model of hypertension-induced oxidative stress assessed as reduction in reactive oxygen species generation in renal tissue at 0.1 mg/kg, po administered via gavage for 7 days by DCFH-DA probe based fluorimetric assay; type: functional, organism-based
[11] = system: Rattus norvegicus; assay: Diuretic activity in normotensive Wistar rat assessed as urine pH at 0.1 mg/kg, po administered via gavage after 8 hrs in presence of atropine (reference value: 6.14 to 6.21); type: functional
[12] = Toxicity in spontaneous hypertensive Wistar rat assessed as changes in urea level in urine at 0.1 mg/kg, po administered for 7 days; type: organism-based; settings: in vivo, 168 h
[13] = system: Rattus norvegicus; assay: Diuretic activity in normotensive Wistar rat assessed as urine pH at 0.1 mg/kg, po administered via gavage after 8 hrs in presence of amiloride (reference value: 6.14 to 6.21); type: functional
[14] = system: Rattus norvegicus; assay: Diuretic activity in normotensive Wistar rat assessed as urine pH at 0.1 mg/kg, po administered via gavage after 8 hrs in presence of indomethacin (reference value: 6.14 to 6.21); type: functional
[15] = system: Rattus norvegicus; assay: Diuretic activity in normotensive Wistar rat assessed as urinary sodium excretion at 0.1 mg/kg, po administered via gavage after 8 hrs (reference value: 61.82 to 80.81 mmol/L); type: functional
[16] = system: Rattus norvegicus; assay: Diuretic activity in normotensive Wistar rat assessed as increase in urine volume excretion at 0.1 to 1 mg/kg, po administered via gavage after 1 hr; type: functional, organism-based
[17] = system: Rattus norvegicus; assay: Diuretic activity in normotensive Wistar rat assessed as urine pH at 1 mg/kg, ip after 8 hrs (reference value: 6.05 +/- 0.22); type: functional
[18] = system: Rattus norvegicus; assay: Diuretic activity in spontaneous hypertensive Wistar rat assessed as increase in urine volume at 0.1 mg/kg, po administered via gavage for 7 days; type: functional, organism-based
[19] = system: Rattus norvegicus; assay: Diuretic activity in normotensive Wistar rat assessed as urinary sodium excretion at 1 mg/kg, ip after 8 hrs (reference value: 81.56 +/- 13.10 mmol/L); type: functional
[20] = system: Rattus norvegicus; assay: Diuretic activity in normotensive Wistar rat assessed as effect on urinary potassium excretion at 0.1 mg/kg, po administered via gavage for 7 days; type: ADME, organism-based; settings: in vivo, 168 h
[21] = system: Rattus norvegicus; assay: Diuretic activity in normotensive Wistar rat assessed as urine conductivity at 0.01 mg/kg, ip after 8 hrs (reference value: 24.87 +/- 0.54 mS/cm); type: functional
[22] = Anti-urolithic activity in synthetic urine assessed as decrease in absorption at 0.1 mg/mL relative to control; type: functional; design: scale not given: the % may be the effect or the level left
[23] = system: Rattus norvegicus; assay: Diuretic activity in normotensive Wistar rat assessed as urinary calcium excretion at 1 mg/kg, po administered via gavage after 8 hrs (reference value: 5.93 to 6.87 mg/dl); type: functional
[24] = system: Rattus norvegicus; assay: Diuretic activity in normotensive Wistar rat assessed as urine pH at 0.1 mg/kg, po administered via gavage after 8 hrs in presence of furosemide (reference value: 6.14 to 6.21); type: functional
[25] = Toxicity in spontaneous hypertensive Wistar rat assessed as changes in plasma uric acid level at 0.1 mg/kg, po administered for 7 days; type: organism-based; settings: in vivo, 168 h
[26] = system: Rattus norvegicus; assay: Diuretic activity in normotensive Wistar rat assessed as urinary calcium excretion at 0.1 mg/kg, po administered via gavage after 8 hrs in presence of indomethacin (reference value: 5.93 to 6.87 mg/dl); type: functional
[27] = system: Rattus norvegicus; assay: Diuretic activity in normotensive Wistar rat assessed as urinary potassium excretion at 0.01 mg/kg, ip […] after 8 hrs (reference value: 22.33 +/- 2.81 mmol/L); type: ADME, organism-based; settings: in vivo
[28] = Toxicity in spontaneous hypertensive Wistar rat assessed as changes in urinary creatinine at 0.1 mg/kg, po administered for 7 days; type: organism-based; settings: in vivo, 168 h
[29] = Toxicity in normotensive Wistar rat assessed as changes in plasma sodium level at 0.1 mg/kg, po administered for 7 days; type: organism-based; settings: in vivo, 168 h
[30] = system: Rattus norvegicus; assay: Diuretic activity in normotensive Wistar rat assessed as urinary sodium excretion at 0.1 mg/kg, po administered via gavage after 8 hrs in presence of hydrochlorothiazide (reference value: 61.82 to 80.81 mmol/L); type: functional
[31] = system: Rattus norvegicus; assay: Diuretic activity in normotensive Wistar rat assessed as urinary potassium excretion at 1 mg/kg, po administered via gavage after 8 hrs (reference value: 22.39 to 24.21 mmol/L); type: ADME, organism-based; settings: in vivo
[32] = Toxicity in normotensive Wistar rat assessed as changes in plasma uric acid level at 0.1 mg/kg, po administered for 7 days; type: organism-based; settings: in vivo, 168 h
[33] = system: Rattus norvegicus; assay: Diuretic activity in normotensive Wistar rat assessed as urine conductivity at 0.1 mg/kg, po administered via gavage after 8 hrs in presence of indomethacin (reference value: 19.54 +/- 0.98 mS/cm); type: functional
[34] = system: Rattus norvegicus; assay: Diuretic activity in normotensive Wistar rat assessed as urine conductivity at 1 mg/kg, ip after 8 hrs (reference value: 24.87 +/- 0.54 mS/cm); type: functional
[35] = system: Rattus norvegicus; assay: Diuretic activity in normotensive Wistar rat assessed as urinary potassium excretion at 0.1 mg/kg, po administered via gavage after 8 hrs in presence of hydrochlorothiazide (reference value: 22.39 to 24.21 mmol/L); type: ADME, organism-based; settings: in vivo
[36] = system: Rattus norvegicus; assay: Diuretic activity in normotensive Wistar rat assessed as urine pH at 0.1 mg/kg, po administered via gavage after 8 hrs in presence of L-NAME (reference value: 6.14 to 6.21); type: functional

Activity [7]: 17.98 mmol/L
Activity [27]: 15.61 mmol/L
Activity [31]: 22.5 mmol/L
Activity [35]: 33.28 mmol/L
SMILES: C[C@@H]1O[C@@H](Oc2c(-c3ccc(O)cc3)oc3cc(O)cc(O)c3c2=O)[C@H](O)[C@H](O)[C@H]1O [AFZELIN]
Activity [1]: Active
Activity [2]: 154.7 mmol/L
Activity [3]: 165.2 mmol/L
Activity [4]: 57.23 mmol/L
Activity [5]: 96.18 mmol/L
Activity [6]: 22.17 mS/cm
Activity [8]: Non-Toxic
Activity [9]: 17.05 - 18.31 mS/cm
Activity [10]: Active
pH [11]: 6.14
Activity [12]: Non-Toxic
pH [13]: 6.26
pH [14]: 5.94
Activity [15]: 53.09 to 56.99 mmol/L
Activity [16]: Active
pH [17]: 5.91
Activity [18]: Active
Activity [19]: 62.46 mmol/L
Activity [20]: Non-Toxic
Activity [21]: 26.4 mS/cm
Activity [22]: 27.81%
Activity [23]: 6.08 mg/dL
pH [24]: 6.25
Activity [25]: Non-Toxic
Activity [26]: 4.82 mg/dL
Activity [28]: Non-Toxic
Activity [29]: Non-Toxic
Activity [30]: 113.3 mmol/L
Activity [32]: Non-Toxic
Activity [33]: 19.34 mS/cm
Activity [34]: 24.92 mS/cm
pH [36]: 6.43
